# Where two headings read alike, the source gives them in different places. Where a SMILES comes first, the peptide text is derived from it. [ ]: non-standard residue; d: D form. The star is where a group is joined. DOTA = O=C(O)CN1CCN(CC(=O)O)CCN(CC(=O)*)CCN(CC(=O)O)CC1; NMeNle = CCCC[C@H](NC)C(=O)O
# What was measured:
# [1] = Metabolic studies in BALB/c mice (intact radiopeptide by radio-HPLC); format: in vivo; details: i.v., 2 nmol, 10 min p.i., two animals per peptide; for Intact radiopeptide in kidney: kidney homogenate; for Intact radiopeptide in liver: liver homogenate
# Protocol: All animal experiments were approved by the Austrian Ministry of Science (BMWF-66.011/0075- WF/V/3b/2016) and performed in accordance with the Austrian Animal Protection Act. Metabolic studies characterizing the stability of selected radioligands against enzymatic degradation were carried out in 7 to 8 week old female BALB/c mice (Charles River, Sulzfeld, Germany). The mice (two animals for each peptide) were intravenously injected into a lateral tail vein with 5–10 MBq of the ^111In-labeled peptide derivatives, corresponding to 2 nmol total peptide. At the time point of 10 min p.i. the animals were euthanatized by cervical dislocation. A sample of urine and blood was immediately collected. Liver and kidneys were dissected, mixed with 20 mM HEPES buffer pH 7.3 (1:1, w/v) and homogenized using an Ultra-Turrax T8 homogenizer (IKA-Werke, Staufen, Germany) for 1 min. All samples taken were analyzed by analytical HPLC using the low-sensitivity loop for urine and the high-sensitivity loop for blood, liver and kidney. Before injection into the HPLC system, all samples except urine were treated with ACN and diluted with water as described for stability studies in human serum. The percentage of intact radiopeptide in the analyzed samples was calculated by integration of the different peaks found in the radiochromatogram using Chromeleon Dionex Software (Version 7.2.9.11323).
# [2] = In vitro stability in human serum (intact radiopeptide by radio-HPLC); format: in vitro ADME; details: fresh human serum, 37 °C, n = 2
# Protocol: In vitro stability studies were performed in human serum (n = 2). The radiolabeled peptides (1000 pmol/mL) were incubated at 37 °C and a sample of 100 μL was taken at 1, 4, and 24 h after incubation. After the precipitation of proteins with ACN at 1:1.5 (v/v), centrifugation (14,000 rpm, 2 min, centrifuge 5424, Eppendorf AG, Germany) and dilution with water at 1:1 (v/v), an aliquot of 100 μL of this solution was analyzed by HPLC. Radioligand breakdown was monitored and the percentage of intact radiopeptide was calculated using Chromeleon Dionex Software (Version 7.2.9.11323). Additionally, the radiolabeled peptides (1000 pmol/mL) were incubated in PBS (n = 1) at room temperature to confirm the complex stability as a control.
# [3] = Biodistribution in BALB/c nude mice bearing A431-CCK2R/A431-mock xenografts; format: in vivo; details: female, athymic BALB/c nude, mouse, iv, 20 pmol, total radioactivity, ~20 pmol, 4 h p.i. (indium-111 or lutetium-177), mean ± SD n = 4; for tissue to tissue ratio at 4 h: BALB/c nude mice; for tissue uptake at 4 h: xenografted BALB/c nude mice, i.v.
# Protocol: The overall biodistribution and tumor targeting properties of selected radiolabeled peptides were evaluated in female athymic BALB/c nude mice (Charles River, Sulzfeld, Germany, age of 7 to 9 weeks). After tumor induction with 2 × 10^6 A431-CCK2R or A431-mock cells (subcutaneously injected in 200 μL DMEM into the right and left flank) and a waiting period of 10–14 days (sufficient to achieve tumors of ∼0.25 g), mice were randomly divided into groups of four and treated with a bolus injection of 150 µL of the injectable solution containing the radiolabeled peptide via a lateral tail vein to achieve an injected radioactivity of 150–200 kBq and a total injected peptide amount of ~20 pmol (n = 4 for each radiopeptide). For DOTA-[(N-Me)1Nal^8]MGS5, additional biodistribution studies were performed with gallium-68 (~0.5 MBq, 20 pmol) and lutetium-177 (~0.5 MBq, 20 pmol). The animals were euthanatized by cervical dislocation at 1 h (gallium-68) or 4 h p.i. (indium-111/ lutetium-177). The tumors and other tissues (blood, lung, heart, muscle, spleen, intestine, liver, kidney, stomach, and pancreas) were dissected, weighed, and the radioactivity measured in the γ-counter. The rest of the body and a standard of the solution injected was also measured together with the collected samples. The percentage of injected activity per gram of tissue (% IA/g) and the tumor-to-organ activity ratio of selected tissues were calculated for each mouse and time point studied. Origin software (Microcal Origin 6.1, Northampton, MA, USA) was used for statistical analysis (independent t-test for two populations; significance level p < 0.05).
# [4] = Binding to serum proteins (incubation in human serum, Sephadex G-50 size exclusion chromatography); format: in vitro ADME; details: 37 °C
# Protocol: Protein binding was determined by incubation of the radiolabeled peptides in human serum at 37 °C (500 pmol/mL, n = 2). For the time points of 1, 4, and 24 h after incubation, samples of 25 µL were subjected to Sephadex G-50 size exclusion chromatography (GE Healthcare Illustra, Little Chalfont, UK). The column and the eluate were measured using the γ-counter and the percentage of protein binding was calculated.
smiles,measurement,setting,value
CCCC[C@@H](C(=O)N[C@@H](CC(=O)O)C(=O)N[C@@H](Cc1cccc2ccccc12)C(=O)NC)N(C)C(=O)[C@H](Cc1c[nH]c2ccccc12)NC(=O)CNC(=O)[C@H](Cc1ccc(O)cc1)NC(=O)[C@H](C)NC(=O)[C@@H](CCC(=O)O)NC(=O)CN1CCN(CC(=O)O)CCN(CC(=O)O)CCN(CC(=O)O)CC1 [[^111In]In-DOTA-MGS5[NHCH3]] [metal not drawn],Intact radiopeptide in kidney,[1],7.4 ± 8.6%
same,Intact radiopeptide in liver,[1],78.1 ± 3.7%
same,Intact radiopeptide in blood,[1],71.7 ± 6.2%
same,Intact radiopeptide in urine,[1],1.3 ± 0.2%
CCCC[C@@H](C(=O)N[C@@H](CC(=O)O)C(=O)N[C@@H](Cc1ccc2ccccc2c1)C(N)=O)N(C)C(=O)[C@H](Cc1c[nH]c2ccccc12)NC(=O)CNC(=O)[C@H](Cc1ccc(O)cc1)NC(=O)[C@H](C)NC(=O)[C@@H](CCC(=O)O)NC(=O)CN1CCN(CC(=O)O)CCN(CC(=O)O)CCN(CC(=O)O)CC1 [[^111In]In-DOTA-[2Nal^8]MGS5] [metal not drawn],Intact radiopeptide in kidney,[1],24.7 ± 0.3%
same,Intact radiopeptide in liver,[1],83.9 ± 0.1%
same,Intact radiopeptide in blood,[1],88.4 ± 0.4%
same,Intact radiopeptide in urine,[1],28.2 ± 1.0%
"CCCC[C@@H](C(=O)N[C@@H](CC(=O)O)C(=O)N(C)[C@@H](Cc1cccc2ccccc12)C(N)=O)N(C)C(=O)[C@H](Cc1c[nH]c2ccccc12)NC(=O)CNC(=O)[C@H](Cc1ccc(O)cc1)NC(=O)[C@H](C)NC(=O)[C@@H](CCC(=O)O)NC(=O)CN1CCN(CC(=O)O)CCN(CC(=O)O)CCN(CC(=O)O)CC1 [[^111In]In-DOTA-[(N-Me)1Nal^8]MGS5, metal not drawn]","remaining at 4 h, 1000 pmol/mL","[2]; human, radiolabeled peptide, 4 h after incubation",99.3 ± 0.9%
same,"remaining at 24 h, 1000 pmol/mL","[2]; radiolabeled peptide (111In where no radiometal named), 24 h after incubation",99.6 ± 0.1%
same,tissue to tissue ratio at 4 h,"[3]; A431-CCK2R xenograft / blood, A431-CCK2R xenograft, read-out: tumor-to-organ ratio: blood",281 ± 88.5
same,tissue to tissue ratio at 4 h,"[3]; A431-CCK2R xenograft / kidney, A431-CCK2R xenograft, read-out: tumor-to-organ ratio: kidney",7.55 ± 0.48
same,tissue to tissue ratio at 4 h,"[3]; A431-CCK2R xenograft / stomach, A431-CCK2R xenograft, read-out: tumor-to-organ ratio: stomach",11.5 ± 1.82
same,tissue uptake at 4 h,"[3]; A431-mock xenograft, read-out: Uptake in A431-mock xenograft",0.38 ± 0.08 %ID/g
same,tissue uptake at 4 h,"[3]; blood, read-out: Uptake in blood",0.19 ± 0.07 %ID/g
same,tissue uptake at 4 h,"[3]; heart, read-out: Uptake in heart",0.14 ± 0.03 %ID/g
same,tissue uptake at 4 h,"[3]; intestine, read-out: Uptake in intestine",0.81 ± 0.1 %ID/g
same,tissue uptake at 4 h,"[3]; kidneys, read-out: Uptake in kidneys",6.33 ± 0.89 %ID/g
same,tissue uptake at 4 h,"[3]; liver, read-out: Uptake in liver",1.39 ± 0.16 %ID/g
same,tissue uptake at 4 h,"[3]; lung, read-out: Uptake in lung",0.21 ± 0.07 %ID/g
same,tissue uptake at 4 h,"[3]; muscle, read-out: Uptake in muscle",0.12 ± 0.05 %ID/g
same,tissue uptake at 4 h,"[3]; spleen, read-out: Uptake in spleen",0.32 ± 0.05 %ID/g
CCCC[C@@H](C(=O)N[C@@H](CC(=O)O)C(=O)N[C@@H](Cc1ccccc1)C(N)=O)N(C)C(=O)[C@H](Cc1c[nH]c2ccccc12)NC(=O)CNC(=O)[C@H](Cc1ccc(O)cc1)NC(=O)[C@H](C)NC(=O)[C@@H](CCC(=O)O)NC(=O)CN1CCN(CC(=O)O)CCN(CC(=O)O)CCN(CC(=O)O)CC1 [[^111In]In-DOTA-[Phe^8]MGS5] [metal not drawn] ({DOTA}-[dE]AYGW[NMeNle]DF-NH2),Binding to Serum Proteins (%),"[4]; radiolabeled peptide (111In where no radiometal named), 500 pmol/mL, 24 h after incubation, Sephadex G-50, γ-counter, n = 2",20%
"CCCC[C@@H](C(=O)N[C@@H](CC(=O)O)C(=O)N(C)[C@@H](Cc1cccc2ccccc12)C(N)=O)N(C)C(=O)[C@H](Cc1c[nH]c2ccccc12)NC(=O)CNC(=O)[C@H](Cc1ccc(O)cc1)NC(=O)[C@H](C)NC(=O)[C@@H](CCC(=O)O)NC(=O)CN1CCN(CC(=O)O)CCN(CC(=O)O)CCN(CC(=O)O)CC1 [[^177Lu]Lu-DOTA-[(N-Me)1Nal^8]MGS5, metal not drawn]","fraction unbound at 4 h, 500 pmol/mL","[4]; human, radiolabeled peptide, 4 h after incubation, Sephadex G-50, n = 2",0.746
same,"fraction unbound at 24 h, 500 pmol/mL","[4]; radiolabeled peptide (111In where no radiometal named), 24 h after incubation, Sephadex G-50, γ-counter, n = 2",0.713
same,tissue uptake at 4 h,"[3]; A431-CCK2R xenograft, read-out: Uptake in A431-CCK2R xenograft",35.1 ± 6.32 %ID/g
same,tissue uptake at 4 h,"[3]; stomach, read-out: Uptake in stomach",2.37 ± 0.33 %ID/g
